{
  "source": "ChEMBL document CHEMBL3244191",
  "about": "“Study of the structural requirements for dopa potentiation and oxotremorine antagonism by L-prolyl-L-leucylglycinamide” (J Med Chem, 1978)",
  "format_in_all_cases": "functional, organism-based",
  "key": {"[1]": {"test_system": "Mus musculus", "assay": "Potentiation of dl-DOPA-induced behavioral effects in ICR mouse assessed as slight piloerection, slight salivation and slight increased motor activity at 2.5 mg/kg, ip administered 1 hr prior to dl-DOPA-challenge measured for 1 hr", "set-up": "dose 2.5 mg/kg"}, "[2]": {"test_system": "Mus musculus", "assay": "Potentiation of dl-DOPA-induced behavioral effects in ICR mouse assessed as moderate piloerection, salivation, marked increased motor activity and irritability at 10 mg/kg, ip administered 1 hr prior to dl-DOPA-challenge measured for 1 hr", "set-up": "dose 10 mg/kg"}, "[3]": {"test_system": "Mus musculus", "assay": "Suppression of oxotremorine-induced tremor in ICR mouse at 20 mg/kg, ip pretreated for 1 hr followed by oxotremorine-challenge", "set-up": "dose 20 mg/kg"}, "[4]": {"test_system": "Mus musculus", "assay": "Potentiation of dl-DOPA-induced behavioral effects in ICR mouse assessed as slight piloerection, slight salivation and slight increased motor activity at 10 mg/kg, ip administered 1 hr prior to dl-DOPA-challenge measured for 1 hr", "set-up": "dose 10 mg/kg"}, "[5]": {"test_system": "Mus musculus", "assay": "Potentiation of dl-DOPA-induced behavioral effects in ICR mouse assessed as moderate piloerection, salivation, marked increased motor activity and irritability at 2.5 mg/kg, ip administered 1 hr prior to dl-DOPA-challenge measured for 1 hr", "set-up": "dose 2.5 mg/kg"}, "[6]": {"test_system": "Mus musculus", "assay": "Suppression of oxotremorine-induced tremor in ICR mouse at 10 mg/kg, ip pretreated for 1 hr followed by oxotremorine-challenge", "set-up": "dose 10 mg/kg"}, "[7]": {"test_system": "Mus musculus", "assay": "Potentiation of dl-DOPA-induced behavioral effects in ICR mouse assessed as marked piloerection, profuse salivation, marked increased irritability and reactivity, jumping, squeaking and aggressive fighting at 0.1 mg/kg, ip administered 1 hr prior to dl-DOPA-challenge measured for 1 hr", "set-up": "dose 0.1 mg/kg"}, "[8]": {"test_system": "Mus musculus", "assay": "Potentiation of dl-DOPA-induced behavioral effects in ICR mouse assessed as marked piloerection, profuse salivation, marked increased irritability and reactivity, jumping, squeaking and aggressive fighting at 1 mg/kg, ip administered 1 hr prior to dl-DOPA-challenge measured for 1 hr", "set-up": "dose 1 mg/kg"}, "[9]": {"test_system": "Mus musculus", "assay": "Potentiation of dl-DOPA-induced behavioral effects in ICR mouse assessed as marked piloerection, profuse salivation, marked increased irritability and reactivity, jumping, squeaking and aggressive fighting at 10 mg/kg, ip administered 1 hr prior to dl-DOPA-challenge measured for 1 hr", "set-up": "dose 10 mg/kg"}, "[10]": {"test_system": "Mus musculus", "assay": "Suppression of oxotremorine-induced tremor in ICR mouse at 4 mg/kg, ip pretreated for 1 hr followed by oxotremorine-challenge", "set-up": "dose 4 mg/kg"}, "[11]": {"test_system": "Mus musculus", "assay": "Suppression of oxotremorine-induced tremor in ICR mouse at 1 mg/kg, ip pretreated for 1 hr followed by oxotremorine-challenge", "set-up": "dose 1 mg/kg"}},
  "note": "Calls of active or inactive are those of the source. No cut-off for these calls is given here. Square brackets hold non-standard residues; d marks the D form. Peptide text beside a SMILES is read from it. azaGly = NNC(=O)O; βAla = NCCC(=O)O",
  "data": [
    {"smiles": "CC(C)C[C@H](NC(=O)C1CCCC1)C(=O)NCC(N)=O", "values": [
      {"measurement": "Activity", "setting": "[1]", "value": "Active"},
      {"measurement": "Activity", "setting": "[2]", "value": "Active"},
      {"measurement": "Activity", "setting": "[3]", "value": "inactive"}
    ]},
    {"smiles": "CC(C)C[C@H](NC(=O)[C@@H]1CCCN1)C(=O)N1CSC[C@@H]1C(N)=O", "values": [
      {"measurement": "Activity", "setting": "[4]", "value": "Active"},
      {"measurement": "Activity", "setting": "[3]", "value": "inactive"}
    ]},
    {"smiles": "CC(=O)CNC(=O)[C@H](CC(C)C)NC(=O)[C@@H]1CCCN1", "values": [
      {"measurement": "Activity", "setting": "[5]", "value": "Active"},
      {"measurement": "Activity", "setting": "[2]", "value": "Active"},
      {"measurement": "Activity", "setting": "[3]", "value": "inactive"}
    ]},
    {"smiles": "CC(C)C[C@H](NC(=O)[C@H]1CSCN1)C(=O)NCC(N)=O", "values": [
      {"measurement": "Activity", "setting": "[4]", "value": "Active"},
      {"measurement": "Activity", "setting": "[6]", "value": "inactive"},
      {"measurement": "Activity", "setting": "[3]", "value": "inactive"}
    ]},
    {"smiles": "CC(C)C[C@H](NC(=O)[C@@H]1CCCN1)C(=O)NNC(N)=O", "note": "(H-Pro-Leu-[azaGly]-NH2)", "values": [
      {"measurement": "Activity", "setting": "[4]", "value": "Active"},
      {"measurement": "Activity", "setting": "[3]", "value": "inactive"}
    ]},
    {"smiles": "CC(C)C[C@H](NC(=O)[C@@H]1CCCN1)C(=O)N1CCC[C@H]1C(N)=O", "note": "(H-Pro-Leu-Pro-NH2)", "values": [
      {"measurement": "Activity", "setting": "[4]", "value": "Active"},
      {"measurement": "Activity", "setting": "[6]", "value": "inactive"},
      {"measurement": "Activity", "setting": "[3]", "value": "Active"}
    ]},
    {"smiles": "CNC(=O)CNC(=O)[C@H](CC(C)C)NC(=O)[C@@H]1CCCN1", "note": "(H-Pro-Leu-Gly-NHMe)", "values": [
      {"measurement": "Activity", "setting": "[4]", "value": "Active"},
      {"measurement": "Activity", "setting": "[3]", "value": "inactive"}
    ]},
    {"smiles": "CC(C)C[C@H](NC(=O)[C@@H]1CCCN1)C(=O)N1CCSC1C(N)=O", "note": "(stereo in doubt; 9)", "values": [
      {"measurement": "Activity", "setting": "[4]", "value": "Active"},
      {"measurement": "Activity", "setting": "[3]", "value": "inactive"}
    ]},
    {"smiles": "CC(C)C[C@H](NC(=O)[C@@H]1CCCN1)C(=O)NCC(N)=O", "note": "(H-Pro-Leu-Gly-NH2)", "values": [
      {"measurement": "Activity", "setting": "[7]", "value": "Active"},
      {"measurement": "Activity", "setting": "[8]", "value": "Active"},
      {"measurement": "Activity", "setting": "[9]", "value": "Active"},
      {"measurement": "Activity", "setting": "[3]", "value": "Active"},
      {"measurement": "Activity", "setting": "[10]", "value": "Active"},
      {"measurement": "Activity", "setting": "[11]", "value": "inactive"}
    ]},
    {"smiles": "CC(C)C[C@H](NC(=O)[C@@H]1CCCN1)C(=O)N1CCSC1C(N)=O", "note": "(single isomer, unassigned; (-))", "values": [
      {"measurement": "Activity", "setting": "[1]", "value": "Active"},
      {"measurement": "Activity", "setting": "[2]", "value": "Active"},
      {"measurement": "Activity", "setting": "[3]", "value": "inactive"}
    ]},
    {"smiles": "CC(C)C[C@H](NC(=O)[C@@H]1CCCN1)C(=O)NCC#N", "values": [
      {"measurement": "Activity", "setting": "[1]", "value": "Active"},
      {"measurement": "Activity", "setting": "[2]", "value": "Active"},
      {"measurement": "Activity", "setting": "[3]", "value": "inactive"}
    ]},
    {"smiles": "CC(C)C[C@H](NC(=O)[C@@H]1CCCN1)C(=O)NCCC(N)=O", "note": "(H-Pro-Leu-[βAla]-NH2)", "values": [
      {"measurement": "Activity", "setting": "[4]", "value": "Active"},
      {"measurement": "Activity", "setting": "[3]", "value": "inactive"}
    ]}
  ]
}
